Assay results taken from ChEMBL document CHEMBL1136478, “New cerebrosides from Euphorbia peplis L.: antimicrobial activity evaluation” (2003).
Converted amounts (≈) assume the structure as drawn.

Columns and labels:
Staphylococcus aureus = assay: Antibacterial activity against Staphylococcus aureus ATCC 25923; format: functional
[1] = system: Mycobacterium tuberculosis; assay: Antibacterial activity against Mycobacterium tuberculosis H331; format: functional
[2] = system: Mycobacterium tuberculosis; assay: Antibacterial activity against Mycobacterium tuberculosis H242; format: functional
Escherichia coli = assay: Antibacterial activity against Escherichia coli ATCC 25922; format: functional
Nakaseomyces glabratus [3] = assay: Antifungal activity against Candida glabrata after 24 hr incubation; format: functional
Candida albicans [4] = assay: Antifungal activity against Candida albicans after 48 hr incubation; format: functional
Candida parapsilosis [5] = assay: Antifungal activity against Candida parapsilosis after 24 hr incubation; format: functional; details: Lodderomyces parapsilosis
Candida parapsilosis [6] = assay: Antifungal activity against Candida parapsilosis after 48 hr incubation; format: functional; details: Lodderomyces parapsilosis
Candida albicans [7] = assay: Antifungal activity against Candida albicans after 24 hr incubation; format: functional
Cryptococcus neoformans [8] = assay: Antifungal activity against Cryptococcus neoformans after 48 hr incubation
Nakaseomyces glabratus [9] = assay: Antifungal activity against Candida glabrata after 48 hr incubation; format: functional
[10] = system: Mycobacterium tuberculosis; assay: Antibacterial activity against Mycobacterium tuberculosis H172; format: functional
[11] = system: Mycobacterium tuberculosis; assay: Antibacterial activity against human Mycobacterium tuberculosis H37Rv; format: functional
Cryptococcus neoformans [12] = assay: Antifungal activity against Cryptococcus neoformans after 24 hr incubation

Structure (SMILES) | MIC (Staphylococcus aureus) [µg/mL] | MIC [1] [µg/mL] | MIC [2] [µg/mL] | MIC (Escherichia coli) [µg/mL] | MIC (Nakaseomyces glabratus [3]) [µg/mL] | MIC (Candida albicans [4]) [µg/mL] | MIC (Candida parapsilosis [5]) [µg/mL] | MIC (Candida parapsilosis [6]) [µg/mL] | MIC (Candida albicans [7]) [µg/mL] | MIC (Cryptococcus neoformans [8]) [µg/mL] | MIC (Nakaseomyces glabratus [9]) [µg/mL] | MIC [10] [µg/mL] | MIC [11] [µg/mL] | MIC (Cryptococcus neoformans [12]) [µg/mL]
CCCCCCCC/C=C/CCCCCCCCCCCCCC[C@@H](O)C(=O)N[C@@H](CO[C@@H]1OC(CO)[C@@H](O)C(O)C1O)[C@H](O)[C@H](O)CCC/C=C/CCCCCCCCC (some centres undefined) | > 160 | 40 (≈ 46 µM) | 80 (≈ 91.9 µM) | > 160 | > 128 | > 128 | > 128 | > 128 | > 128 | > 128 | > 128 | 40 (≈ 46 µM) | 40 (≈ 46 µM) | 128 (≈ 147 µM)
CCCCCCCCC/C=C/CC/C=C/[C@@H](O)[C@H](CO[C@@H]1OC(CO)[C@@H](O)C(O)C1O)NC(=O)[C@H](O)CCCCCCCCCCCCCC (some centres undefined) | > 160 | > 160 | > 160 | > 160 | > 128 | > 128 | > 128 | > 128 | > 128 | > 128 | > 128 | > 160 | > 160 | 128 (≈ 179 µM)
CCCCCCCCC/C=C/CCC[C@@H](O)[C@@H](O)[C@H](CO[C@@H]1OC(CO)[C@@H](O)C(O)C1O)NC(=O)[C@H](O)CCCCCCCCCCCCCCCCCCCCCC (some centres undefined) | > 160 | > 160 | > 160 | > 160 | > 128 | > 128 | > 128 | > 128 | > 128 | > 128 | > 128 | > 160 | > 160 | 128 (≈ 152 µM)
CCCCCCCC/C=C/CCCCCCCCCCCC[C@@H](O)C(=O)N[C@@H](CO[C@@H]1OC(CO)[C@@H](O)C(O)C1O)[C@H](O)[C@H](O)CCC/C=C/CCCCCCCCC (some centres undefined) | 160 (≈ 190 µM) | > 160 | > 160 | 160 (≈ 190 µM) | > 128 | > 128 | > 128 | > 128 | > 128 | > 128 | > 128 | > 160 | 160 (≈ 190 µM) | 64 (≈ 76 µM)
O=C(O)c1cn(C2CC2)c2cc(N3CCNCC3)c(F)cc2c1=O [CIPROFLOXACIN] | 0.5 (≈ 1.51 µM) | 0.125 (≈ 0.377 µM) | 0.125 (≈ 0.377 µM) | – | – | – | – | – | – | – | – | 0.25 (≈ 0.754 µM) | 0.25 (≈ 0.754 µM) | –
Clc1ccc(COC(Cn2ccnc2)c2ccc(Cl)cc2Cl)c(Cl)c1 (centres undefined) [MICONAZOLE] | – | – | – | – | 5 (≈ 12 µM) | 40 (≈ 96.1 µM) | 0.625 (≈ 1.5 µM) | 1.25 (≈ 3 µM) | 2.5 (≈ 6.01 µM) | 0.156 (≈ 0.375 µM) | 10 (≈ 24 µM) | – | – | 0.156 (≈ 0.375 µM)
